Calls of active or inactive are those of the source.
Legend:
Type in all cases: functional, organism-based
Salmonella typhi = assay: Antimicrobial activity against Salmonella typhi Zopf 1884 by Kirby and Baur method; settings: Salmonella enterica subsp. enterica serovar Typhi
Kocuria rosea = assay: Antimicrobial activity against Micrococcus roseus Flugge 1886 by Kirby and Baur method
Klebsiella aerogenes = assay: Antimicrobial activity against Enterobacter aerogenes Kruse 1896 by Kirby and Baur method
Streptococcus sp. = assay: Antimicrobial activity against Streptococcus sp. Rosenbach 1884 by Kirby and Baur method
Staphylococcus aureus = assay: Antimicrobial activity against Staphylococcus aureus Rosenbach 1884 by Kirby and Baur method
Candida = assay: Antimicrobial activity against Candida sp. Berkhout by Kirby and Baur method
Escherichia coli = assay: Antimicrobial activity against Escherichia coli Migula 1895 by Kirby and Baur method
Providencia rettgeri = assay: Antimicrobial activity against Proteus rettgeri Hadley 1918 by Kirby and Baur method

Measured: Activity

C=C1CCC2CC1C(C)(C)CC(O)/C=C\2C (stereo not drawn)
active: Staphylococcus aureus
inactive: all other assays above
